Test results as given in ChEMBL document CHEMBL5038645, “Discovery of Mycobacterium tuberculosis Rv3364c-Derived Small Molecules as Potential Therapeutic Agents to Target SNX9 for Sepsis” (J Med Chem, 2022).
In brackets after ≈: the same amount, converted by molar mass. Activity calls are given as the source filed them. The rule behind the calls is not given here.

Columns and labels:
[1] = Antiinflammatory activity in […] cells assessed as reduction in LPS-induced TNF-alpha release at 10 uM pre incubated for 1 hr followed by LPS stimulation and measured after 30 mins by ELISA; type: functional
[2] = Antiinflammatory activity in […] cells assessed as reduction in LPS-induced NOX release at 10 uM pre incubated for 1 hr followed by LPS stimulation and measured after 30 mins by ELISA; type: functional
[3] = Antiinflammatory activity in […] cells assessed as reduction in LPS-induced IL-6 release at 10 uM pre incubated for 1 hr followed by LPS stimulation and measured after 30 mins by ELISA; type: functional
[4] = system: Escherichia coli; assay: Antibacterial activity against Escherichia coli ATCC 12701 assessed as bacterial clearance incubated for 6 to 24 hrs by microbroth dilution method; type: functional; conditions: time 6-24 hrs
[5] = system: Staphylococcus aureus; assay: Antibacterial activity against Staphylococcus aureus ATCC 6538 assessed as bacterial clearance incubated for 6 to 24 hrs by microbroth dilution method; type: functional; conditions: time 6-24 hrs
[6] = system: Pseudomonas aeruginosa; assay: Antibacterial activity against Pseudomonas aeruginosa ATCC 10145 assessed as bacterial clearance incubated for 6 to 24 hrs by microbroth dilution method; type: functional; conditions: time 6-24 hrs
[7] = Tmax in C57BL/6 mouse at 1 mg/kg, ip incubation up to 6 hrs by LC-MS/MS analysis; type: ADME, organism-based; conditions: in vivo
[8] = Cmax in C57BL/6 mouse at 1 mg/kg, ip incubation up to 6 hrs by LC-MS/MS analysis; type: ADME, organism-based; set-up: route intraperitoneal, dose 1 mg/kg, time <=6; conditions: in vivo
[9] = AUC (0 to last) in C57BL/6 mouse at 1 mg/kg, ip incubation up to 6 hrs by LC-MS/MS analysis; type: ADME, organism-based; set-up: route intraperitoneal, dose 1 mg/kg, time <=6; conditions: in vivo
[10] = Half life in C57BL/6 mouse at 1 mg/kg, ip incubation up to 6 hrs by LC-MS/MS analysis; type: ADME, organism-based; conditions: in vivo
[11] = Stability in human liver microsomes assessed as parent compound remaining at 10 uM preincubated for 5 mins followed by NADPH addition measured after 30 mins by LC-MS/MS analysis relative to control; type: ADME, Microsome; conditions: time 35 min, read-out: Stability
[12] = Stability in human plasma assessed as parent compound remaining at 10 uM incubation upto 120 mins by LC-MS/MS analysis relative to control; type: ADME, cell-free; conditions: read-out: Stability
[13] = system: THP-1; assay: Inhibition of SNX9- p47phox protein-protein interaction in human THP-1 at 10 uM preincubated for 1 hrs followed by LPS stimulation for 30 mins; type: cell-based
[14] = system: BMDM; assay: Inhibition of SNX9- p47phox protein-protein interaction in mouse BMDM at 10 uM preincubated for 1 hrs followed by LPS stimulation for 30 mins; type: cell-based; conditions: time 1.5 hrs
[15] = system: THP-1; assay: Inhibition of SNX9- p47phox protein-protein interaction in LPS-induced early endosome of human THP-1cells at 10 uM preincubated for 1 hrs followed by LPS stimulation for 30 mins; type: cell-based
[16] = system: BMDM; assay: Inhibition of SNX9- p47phox protein-protein interaction in LPS-induced early endosome of mouse BMDM cells at 10 uM preincubated for 1 hrs followed by LPS stimulation for 30 mins; type: cell-based
[17] = system: THP-1; assay: Antiinflammatory activity in LPS-induced human THP-1 cells assessed as reduction in TNF-alpha production preincubated for 1 hr followed by LPS stimulation and measured after 30 mins by ELISA; type: functional, cell-based; conditions: dose 1-10000 nM
[18] = system: BMDM; assay: Antiinflammatory activity in LPS-induced […] cells assessed as reduction in TNF-alpha production preincubated for 1 hr followed by LPS stimulation and measured after 30 mins by ELISA; type: functional, cell-based; conditions: dose 1-10000 nM
[19] = system: THP-1; assay: Effect on SNX9 expression in human THP-1 cells at 1 to 5000 nM measured after 24 to 48 hrs; type: functional, cell-based; conditions: dose 1-5000 nM, time 24-48 hrs
[20] = system: BMDM; assay: Effect on SNX9 expression in mouse BMDM cells at 1 to 5000 nM measured after 24 to 48 hrs; type: functional, cell-based; conditions: dose 1-5000 nM, time 24-48 hrs
[21] = system: Mus musculus; assay: Protection against CLP-induced ip dosed systemic sepsis SNX9+/+ mouse model; type: functional, organism-based; conditions: dose 1.0 µg/kg
[22] = system: Mus musculus; assay: Protection against CLP-induced systemic sepsis SNX9+/+ mouse model assessed as mortality at 100 to 1000 microg/kg, ip; type: functional; conditions: dose 100-1000 µg/kg; at 100 to 1000 µg/kg
[23] = system: Mus musculus; assay: Protection against CLP-induced systemic sepsis SNX9-/- mouse model assessed as effect on mouse survival at 100 to 1000 microg/kg, ip; type: functional, organism-based; conditions: dose 100-1000 µg/kg
[24] = system: Mus musculus; assay: Protection against CLP-induced systemic sepsis SNX9+/+ mouse model assessed as reduction in serum TNF-alpha at 10 microg/kg, ip; type: functional, organism-based; conditions: dose 10.0 µg/kg
[25] = system: Mus musculus; assay: Protection against CLP-induced systemic sepsis SNX9+/+ mouse model assessed as reduction in serum IL-6 at 10 microg/kg, ip; type: functional, organism-based; conditions: dose 10.0 µg/kg
[26] = system: Mus musculus; assay: Protection against CLP-induced systemic sepsis SNX9+/+ mouse model assessed as reduction in serum IL-1beta at 10 microg/kg, ip; type: functional, organism-based; conditions: dose 10.0 µg/kg
[27] = system: Mus musculus; assay: Protection against CLP-induced systemic sepsis SNX9+/+ mouse model assessed as reduction in serum IL-18 at 10 microg/kg, ip; type: functional, organism-based; conditions: dose 10.0 µg/kg
[28] = system: Mus musculus; assay: Protection against CLP-induced systemic sepsis SNX9+/+ mouse model assessed as reduction in serum IL-12p40 at 10 microg/kg, ip; type: functional, organism-based; conditions: dose 10.0 µg/kg
[29] = system: Mus musculus; assay: Protection against CLP-induced systemic sepsis SNX9+/+ mouse model assessed as reduction in serum IL-10 at 10 microg/kg, ip; type: functional, organism-based; conditions: dose 10.0 µg/kg
[30] = system: Mus musculus; assay: Protection against CLP-induced systemic sepsis SNX9+/+ mouse model assessed as reduction in infiltration of immune cells at 10 microg/kg, ip by H & E staining based analysis; type: functional, organism-based; conditions: dose 10.0 µg/kg
[31] = system: Mus musculus; assay: Protection against CLP-induced systemic sepsis SNX9+/+ mouse model assessed as reduction in lung damage at 10 microg/kg, ip by H and E staining based analysis; type: functional, organism-based; conditions: dose 10.0 µg/kg
[32] = system: Mus musculus; assay: Protection against CLP-induced systemic sepsis SNX9+/+ mouse model assessed as reduction in liver damage at 10 microg/kg, ip by H and E staining based analysis; type: functional, organism-based; conditions: dose 10.0 µg/kg
[33] = system: Mus musculus; assay: Protection against CLP-induced systemic sepsis SNX9+/+ mouse model assessed as reduction in spleen damage at 10 microg/kg, ip by H and E staining based analysis; type: functional, organism-based; conditions: dose 10.0 µg/kg
[34] = system: Mus musculus; assay: In vivo inhibition of SNX9-p47phox protein-protein interaction in CLP-induced systemic sepsis mouse model at 10 microg/kg, ip; type: functional, organism-based; conditions: dose 10.0 µg/kg
[35] = system: Mus musculus; assay: In vivo inhibition of SNX9-p47phox protein-protein interaction in CLP-induced systemic sepsis mouse model assessed as reduction ROS in splenocytes at 10 microg/kg, ip; type: functional, organism-based; conditions: dose 10.0 µg/kg
[36] = Drug uptake in CLP-induced systemic sepsis mouse model in lung macrophages at 10 microg/kg, ip; type: ADME, tissue-based; conditions: in vivo, 0.01 mg/kg, dose 10 µg/kg
[37] = Drug uptake in CLP-induced systemic sepsis mouse model in liver macrophages at 10 microg/kg, ip; type: ADME, tissue-based; conditions: in vivo, 0.01 mg/kg, dose 10 µg/kg

`CC(C)(C)c1ccc(-c2nc(NCCOCCOCCN)nc(NCCc3ccccc3)n2)cc1` gave an inhibition at 10 µM [1] of 25.3%, an inhibition at 10 µM [2] of 23% and an inhibition at 10 µM [3] of 40.2%.
`NCCOCCOCCNc1nc(NCC2CCCO2)nc(-c2ccc(C(F)(F)F)cc2)n1` (stereo unspecified) showed an inhibition at 10 µM [1] of 10.1%, an inhibition at 10 µM [2] of 46.1% and an inhibition at 10 µM [3] of 23.4%.
For `CC(C)(C)c1ccc(-c2nc(NCCOCCOCCN)nc(NCC3CCCO3)n2)cc1.Cl` (stereo unspecified), the inhibition at 10 µM [1] was 60.8%, the inhibition at 10 µM [2] was 57% and the inhibition at 10 µM [3] was 66.7%. The MIC80 [4] was 1.98 µg/mL, the MIC80 [5] was 4 µg/mL and the MIC80 [6] was 1.98 µg/mL. For the same compound, the Tmax [7] was 10.2 min, the Cmax [8] was 136 ng/mL and the AUC(0-t) at 6 h [9] was 209 ng·h/mL. For the same compound, the half-life [10] was 63.6 min, the remaining at 0.5 h, 10 µM [11] was > 100% and the remaining at 2 h, 10 µM [12] was 93%. For the same compound, the inhibition [13] was “Active”, the inhibition [14] was “Active” and the inhibition [15] was “Active”. For the same compound, the inhibition [16] was “Active”, the Activity [17] was “Dose-Dependent Effect” and the Activity [18] was “Dose-Dependent Effect”. The Activity [19] was “inactive”, the Activity [20] was “inactive” and the Activity [21] was “Dose-Dependent Effect”. For the same compound, the Activity [22] was 70%, the Activity [23] was “inactive” and the Activity [24] was “Active”. For the same compound, the Activity [25] was “Active”, the Activity [26] was “Active” and the Activity [27] was “Active”. For the same compound, the Activity [28] was “Active”, the Activity [29] was “Active” and the Activity [30] was “Active”. For the same compound, the Activity [31] was “Active”, the Activity [32] was “Active” and the Activity [33] was “Active”. For the same compound, the inhibition [34] was “Active”, the inhibition [35] was “Active” and the Drug uptake [36] was “Active”. The Drug uptake [37] was “Active”.
Compound `CC(C)(C)c1ccc(-c2nc(NCCOCCOCCN)nc(NCC3CCCCO3)n2)cc1` (stereo unspecified) has an inhibition at 10 µM [1] of 10.4%, an inhibition at 10 µM [2] of 46.1% and an inhibition at 10 µM [3] of 56.7%.
`C=CCNc1nc(NCCOCCOCCN)nc(-c2ccc(C(C)(C)C)cc2)n1` gave an inhibition at 10 µM [1] of 23.4%, an inhibition at 10 µM [2] of 29.2% and an inhibition at 10 µM [3] of 32.6%.
In the case of `NCCOCCOCCNc1nc(NCC2CCCO2)nc(-c2ccccc2)n1` (stereo unspecified), the inhibition at 10 µM [1] is reported as 10.6%, the inhibition at 10 µM [2] is reported as 30.7% and the inhibition at 10 µM [3] is reported as 26.7%.
Compound `CC1(C)S[C@@H]2[C@H](NC(=O)[C@H](N)c3ccccc3)C(=O)N2[C@H]1C(=O)O` [AMPICILLIN] has an MIC80 [4] of 1.98 µg/mL (≈ 5.67 µM), an MIC80 [5] of 0.25 µg/mL (≈ 0.715 µM) and an MIC80 [6] of 0.99 µg/mL (≈ 2.83 µM).
Compound `CC(C)(C)c1ccc(-c2nc(NCCOCCOCCN)nc(Nc3ccc(Cl)cc3)n2)cc1` has an inhibition at 10 µM [1] of 33.7%, an inhibition at 10 µM [2] of 34.2% and an inhibition at 10 µM [3] of 32.5%.
`CC(C)(C)c1ccc(-c2nc(NCCOCCOCCN)nc(NCc3ccccc3)n2)cc1` gave an inhibition at 10 µM [1] of 10.7%, an inhibition at 10 µM [2] of 38.5% and an inhibition at 10 µM [3] of 50%.
With `CC(C)(C)c1ccc(-c2nc(NCCCOCCOCCCN)nc(NCC3CCCO3)n2)cc1` (stereo unspecified) the inhibition at 10 µM [1] was 13.8%, the inhibition at 10 µM [2] was 19.1% and the inhibition at 10 µM [3] was 22.3%.
For `NCCOCCOCCNc1nc(NCC2CCCO2)nc(-c2ccc(Cl)cc2)n1` (stereo unspecified), the inhibition at 10 µM [1] was 25.3%, the inhibition at 10 µM [2] was 30.7% and the inhibition at 10 µM [3] was 33.3%.
In the case of `NCCOCCOCCNc1nc(NCC2CCCO2)nc(-c2ccc(OC(F)(F)F)cc2)n1` (stereo unspecified), the inhibition at 10 µM [1] is reported as 10.9%, the inhibition at 10 µM [2] is reported as 38.4% and the inhibition at 10 µM [3] is reported as 16.7%.
Work on `Cc1ccc(CNc2nc(NCCOCCOCCN)nc(-c3ccc(C(C)(C)C)cc3)n2)cc1` yielded an inhibition at 10 µM [1] of 35.9%, an inhibition at 10 µM [2] of 15.3% and an inhibition at 10 µM [3] of 33.3%.
Compound `Cc1cccc(CNc2nc(NCCOCCOCCN)nc(-c3ccc(C(C)(C)C)cc3)n2)c1` has an inhibition at 10 µM [1] of 25.3%, an inhibition at 10 µM [2] of 41.6% and an inhibition at 10 µM [3] of 56.7%.
